Source: patent publication US7022711B2, “2-(4-Pyridyl)amino-6-dialkoxyphenyl-pyrido[2,3-d]pyrimidin-7-ones” (Warner-Lambert Company, priority 2000, dated 2006)

Tests used:
[1] = system: Human umbilical vein endothelial cells (HUVECs); assay: Serum stimulated HUVEC cell proliferation (Sulphorhodamine B); type: cell-based
Description: (§1) Human umbilical vein endothelial cells (HUVECs) (Clonetics, Palo Alto, Calif.) were seeded at 2000 cells per well in growth medium containing 2% serum (EGM, Clonetics) and allowed to attach overnight (37° C., 5% CO2, 100% humidity). C6 rat glioma cells (ATCC) were seeded at 600 cells per well and incubated in F10 medium (GIBCO, Gaithersburg, Md.) supplemented with 15% horse serum, 2.5% fetal bovine serum, and 1 mM glutamine. A90 human ovarian cells (Dr. Kent Crickard, SUNY/AB Medical School) were seeded at 600 cells per well in RPMI1640 (GIBCO) plus 10% fetal bovine serum. Plates were incubated overnight (37° C., 5% CO2, 100% humidity) to allow the cells to attach. Test compound dilutions were added to the appropriate wells, and the incubation was continued for 4 additional days. Monolayers were fixed in 10% trichloroacetic acid (30 minutes at 4° C.), washed with distilled water, and stained with Sulphorhodamine B (0.075% in 1% acetic acid) (Sigma). Plates were washed in 1% acetic acid, and the bound dye was solubilized in 100 μL unbuffered Tris base. Absorbance was measured at 540 nm using a reference filter wavelength of 630 nm. Inhibitor potency (IC50) versus cellular proliferation was determined, and endothelial cell selectivity was assessed by comparing the inhibition of HUVEC proliferation to A90 and C6 tumor cell proliferation (Table 3).

c-Src = biological target: T1, c-Src (Homo sapiens, UniProt P12931); assay: Kinase inhibition assay (DELFIA), c-Src; type: biochemical; settings: 40 μM ATP, c-Src 3 units per reaction
T1 construct: purchased Upstate Biotechnology, Lake Placid, N.Y
Description: (§2) The inhibition activity of the compounds in Examples 8, 9, 10, 11, and 12 and Reference Compounds A and B were evaluated using the Dissociated Enhanced Lanthanide Fluoroimmuno Assay (DELFIA) (Frank Loganzo and Carolyn Hardy. A sensitive, time-resolved fluorometric assay for the detection of inhibitors of phosphotyrosine kinases. American Biotechnology Laboratory, December 1998). DELFIA plates (EG&G Wallac, Gaithersburg, Md.) were coated overnight with Poly Glu Tyr (4:1) (Sigma, St. Louis, Mo.) at room temperature, washed (DELFIA wash reagent, EG&G Wallac), and spotted with 1 μL inhibitor dilution or DMSO carrier control per well. In some cases, kinase was autophosphorylated prior to analysis by incubating 45 minutes at 4° C. in the presence of 4 mM ATP and 25 mM MgCl2. A typical 100 μL kinase assay reaction contained 20 mM Tris (pH 7.5), 20 mM MgCl2, 50 mM NaCl, 5 mM DTT, and protease inhibitors (Mini EDTA-free protease inhibitor cocktail tablets, Boehringer Mannheim, Indianapolis, Ind.), 40 μM ATP, and an appropriate concentration of inhibitor. The reaction was allowed to continue for 30 minutes at room temperature. Plates were washed, blocked 30 minutes at room temperature (0.5% bovine serum albumin in DELFIA Assay Buffer, EG&G Wallac), and washed. One hundred microliter europium-conjugated antiphosphotyrosine antibody in DELFIA assay buffer was added to each well. Plates were incubated for 1 hour and decanted. One hundred microliter DELFIA enhancement solution (EG&G Wallac) was added and time-resolved fluorescence of the reactions determined using a VICTOR2 1420 multilable counter (EG&G Wallac). Compounds were tested from 10 through 0.0001 μM. c-Src was (Upstate Biotechnology, Lake Placid, N.Y.) was used at 3 units per reaction. The kinase domains from FGFR-1, VEGFR-2, Lck, and PDGF were purified from baculoviral vectors expression systems and were used in the assays at 20 nM.

[2] = Metabolic stability, mice liver S9 fraction; type: in vitro ADME; settings: mice liver S9, 5 μM, 37° C., 1.0 mM NADPH
Description: (§3) Compounds were individually incubated (5 μM in DMSO) with human and mice liver S9 fractions in 50 mM KHPO4 buffer at 37° C. in the presence of 1.0 mM NADPH and additional cofactors. At 0, 10, 20, and 40 minutes, 100 μL aliquots were removed and added to 300 μL of acetonitrile. Standard curves were prepared in a similar manner with each compound. Samples were analyzed for parent concentration by LC-MS/MS. The in vitro metabolic half-life was determined from the concentration-time plots using WinNonlin. These in vitro data represent the rate of oxidative, hydrolytic, and conjugative metabolism.

FGFR-1 = biological target: T2, FGFR-1 (Homo sapiens, UniProt P11362); assay: Kinase inhibition assay (DELFIA), FGFr; type: biochemical; settings: 40 μM ATP, kinase domain 20 nM
T2 construct: The kinase domains from FGFR-1, VEGFR-2, Lck, and PDGF were purified from baculoviral vectors expression systems; made in house
T2 sequence (P11362 478-767 limits assumed, species assumed): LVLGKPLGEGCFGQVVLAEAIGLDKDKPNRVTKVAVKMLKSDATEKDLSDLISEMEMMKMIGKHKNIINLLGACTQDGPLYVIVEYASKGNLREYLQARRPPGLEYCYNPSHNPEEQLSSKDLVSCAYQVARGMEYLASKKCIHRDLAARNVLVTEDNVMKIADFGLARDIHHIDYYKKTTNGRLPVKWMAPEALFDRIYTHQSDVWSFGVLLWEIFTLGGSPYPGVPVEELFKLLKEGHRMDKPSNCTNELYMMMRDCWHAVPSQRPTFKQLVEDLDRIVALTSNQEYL
Description: as §2

VEGFR-2 = biological target: T3, VEGFR-2 (Homo sapiens, UniProt P35968); assay: Kinase inhibition assay (DELFIA), VEGF-2; type: biochemical; settings: 40 μM ATP, kinase domain 20 nM
T3 construct: The kinase domains from FGFR-1, VEGFR-2, Lck, and PDGF were purified from baculoviral vectors expression systems; made in house
T3 sequence (P35968 834-1162 limits assumed, species assumed): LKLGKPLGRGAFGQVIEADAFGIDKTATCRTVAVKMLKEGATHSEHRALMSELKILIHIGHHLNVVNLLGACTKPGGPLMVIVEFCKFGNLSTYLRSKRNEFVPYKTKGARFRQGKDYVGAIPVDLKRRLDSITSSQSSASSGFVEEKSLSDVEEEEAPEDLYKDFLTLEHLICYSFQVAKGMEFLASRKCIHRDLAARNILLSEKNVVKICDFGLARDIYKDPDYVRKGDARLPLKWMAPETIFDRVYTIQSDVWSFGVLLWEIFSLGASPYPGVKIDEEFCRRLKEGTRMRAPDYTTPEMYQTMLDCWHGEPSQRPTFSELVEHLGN
Description: as §2, with “DELFIA” for “The inhibition activity of the compounds in Examples 8, 9, 10, 11, and 12 and Reference Compounds A and B were evaluated using the Dissociated Enhanced Lanthanide Fluoroimmuno Assay (DELFIA) (Frank Loganzo and Carolyn Hardy. A sensitive, time-resolved fluorometric assay for the detection of inhibitors of phosphotyrosine kinases. American Biotechnology Laboratory, December 1998). DELFIA”, “One hundred microliter DELFIA enhancement solution (EG&G Wallac) was added and time-resolved fluorescence of the reactions determined using a VICTOR2 1420 multilable counter (EG&G Wallac).” left out

[3] = Metabolic stability, human liver S9 fraction; type: in vitro ADME; settings: human liver S9, 5 μM, 37° C., 1.0 mM NADPH
Description: as §3

C6 rat glioma cells = assay: C6 tumor cell proliferation (Sulphorhodamine B); type: cell-based; settings: 4 days with compound
Description: as §1

A90 human ovarian cells = assay: A90 tumor cell proliferation (Sulphorhodamine B); type: cell-based; settings: 4 days with compound
Description: as §1

6-(3,5-Dimethoxy-phenyl)-8-ethyl-2-(pyridin-4-ylamino)-8H-pyrido[2,3-d]pyrimidin-7-one [Example 8]
IC50 ([1]; 2% serum growth medium, 4 days with compound): 0.009 µM | selectivity for serum-stimulated endothelial cell proliferation ([1]; HUVEC compared to A90 and C6 tumor cell proliferation): selective inhibitors | IC50 (c-Src): 36.5 µM | MS9 in vitro metabolic half-life [2]: >3.33 h | IC50 (FGFR-1): 0.009 µM | IC50 (VEGFR-2): 0.02 µM | HS9 in vitro metabolic half-life [3]: >3.33 h | IC50 (C6 rat glioma cells): > 25 µM | IC50 (A90 human ovarian cells): 2.92 µM
